Values of other authors as cited in patent publication US20070190209A1, “All natural multivitamin and multimineral dietary supplement formulations for enhanced absorption and biological utilization” (Mannatech, Inc., priority 2006, published 2007).
Read-outs that look alike come from different tables or passages of the source. One block for each molecule: values may come before it.

What was measured:
[1] = test system: intestinal glucuronidation
bone components = conditions: in vitro, combined with zinc; Uchiyama, et al. (2005)
[2] = test system: human cytosolic glutathione S-transferases (GSTs); conditions: van Haften, et al. (2002, 2003)
[3] = test system: phase II detoxifying enzymes; conditions: glutathione transferases, NAD(P)H:quinone reductases, epoxide hydrolases; literature
osteoclasts = conditions: Rao, et al. (2003)
thyroid gland of rats = conditions: Radovic, et al. (2005)
[4] = test system: mammalian glutathione transferases; conditions: Kulkarni and Kulkarni (1995)
[5] = by decreasing or eliminating intestinal glucuronidation, Mizuma and Awazu (2004)

absorption of model drug alpha-napthol [1, 5]: increase the absorption
Molecule: Oc1cc(O)c2c(c1)O[C@H](c1ccc(O)c(O)c1)[C@H](O)C2 [epicatechin]

absorption of model drug alpha-napthol [1, 5]: increase the absorption
Molecule: O=c1c(O)c(-c2ccc(O)c(O)c2)oc2cc(O)cc(O)c12 [quercetin]

Molecule: CC1=C(/C=C/C(C)=C/C=C/C(C)=C/C=C/C=C(C)/C=C/C=C(C)/C=C/C2=C(C)C[C@@H](O)CC2(C)C)C(C)(C)CCC1 [beta-cryptoxanthin]
anabolic effects on bone components (bone components): synergistic anabolic effects

Molecule: tocopherols
activity of human cytosolic GSTs [2]: inhibited

Molecule: CSCCCCC(=NOS(=O)(=O)O)S[C@@H]1O[C@H](CO)[C@@H](O)[C@H](O)[C@H]1O [glucoerucin]
induction of phase II detoxifying enzymes [3]: potent inducers

Molecule: CC(C)=CCC/C(C)=C/C=C/C(C)=C/C=C/C(C)=C/C=C/C=C(C)/C=C/C=C(C)/C=C/C=C(\C)CCC=C(C)C [lycopene]
formation of osteoclasts and osteoclastic mineral resorption (osteoclasts): prevented the formation of osteoclasts and osteoclastic mineral resorption

Molecule: tocotrieneols
activity of human cytosolic GSTs [2]: inhibited

absorption of model drug alpha-napthol [1, 5]: increase the absorption
Molecule: O=c1cc(-c2ccccc2)oc2cc(O)cc(O)c12 [chrysin]

Molecule: C[S+]([O-])CCCC/C(=N\OS(=O)(=O)O)S[C@@H]1O[C@H](CO)[C@@H](O)[C@H](O)[C@H]1O (stereo partly shown) [glucoraphanin]
induction of phase II detoxifying enzymes [3]: potent inducers

Molecule: O=C(O[C@@H]1Cc2c(O)cc(O)cc2O[C@@H]1c1cc(O)c(O)c(O)c1)c1cc(O)c(O)c(O)c1 [epigallocatechin galleate (ECGC), epigallocatechin galleate]
absorption of model drug alpha-napthol [1]: increase the absorption

Molecule: Cc1c(C)c2c(c(C)c1O)CC[C@@](C)(CCC[C@H](C)CCC[C@H](C)CCCC(C)C)O2 [alpha-tocopherol]
activity of human cytosolic GSTs [2]: inhibited

Molecule: COc1cc(O)c(CC=C(C)C)c(O)c1C(=O)/C=C/c1ccc(O)cc1 [xanthohumol]
uptake of iodine into the thyroid gland (thyroid gland of rats): stimulates the uptake of iodine

Molecule: vitamin A
inhibition of mammalian glutathione transferases [4]: inhibit mammalian glutathione transferases at low concentrations
